Experimental findings from publication PMC3736071, “Probing horseradish peroxidase catalyzed degradation of azo dye from tannery wastewater” (SpringerPlus, 2013) are described below.

This test concerns T1, horseradish peroxidase (HRP).
T1 construct: gene PRXC1A
In words: dye decolorization at […] nm, Lineweaver-Burk plot. As to conditions: free HRP; H2O2 co-substrate (14 μL of 30% w/v per 3 mL, fixed); pH 6.6; 30°C; commercial dye; read-out: apparent Km. In kind it is biochemical, Armoracia rusticana.

On to `O=S(=O)(O)c1cccc(N=Nc2ccc(N=Nc3ccc(Nc4ccccc4)c4c(S(=O)(=O)O)cccc34)c3ccccc23)c1` [C.I. Acid Blue 113], for which the Km is 68 µM.

By Km is commonly meant the concentration of substrate that gives half-maximal velocity.
